# According to US20250057808A1, “COMPOSITION COMPRISING BETA LACTAM FOR TREATING ALCOHOL DEPENDENCE AND ALCOHOL ASSOCIATED DISEASES OR CONDITIONS” (Temple University of the Commonwealth System of Higher …, priority 2023, published 2025):
# “Also recorded” adds a separate entry of the source.
# Columns and labels:
# GLT-1 = experiment: Immunoblot GLT-1 in mPFC-IL, mPFC-PL, NAc-core, NAc-shell (section B); format: in vivo, Male and female alcohol-preferring (P) rats; details: 100 mg/kg i.p. 5 days
# Protocol: After 24 hours of receiving the last injection, rats were euthanized by CO2 inhalation followed by decapitation with a guillotine. Brains were harvested and immediately frozen on dry ice and stored at −80° C. Cryostat (Leica) was used to isolate the mPFC subregions (mPFC-IL and mPFC-PL), and subregions of the NAc (NAc-core and NAc-shell). Brains were micro-punctured using the stereotaxic coordinates following the Rat Brain Atlas. The isolated brain regions were stored at −80° C. for subsequent protein detection using Western Blot assay.
# Immunoblot assays were performed to determine the expression of GLT-1, xCT and β-tubulin in mPFC-IL, mPFC-PL, NAc-core, and NAc-shell of all groups as described previously. Briefly, brain samples were homogenized in lysis buffer supplemented with protease inhibitor and total protein was quantified using protein assay (Bio-Rad, Hercules, CA, USA). Equal amount of the samples was loaded on polyacrylamide gel (10-20%).
# Subsequently, proteins were transferred on a PVDF membrane and blocked with 5% milk in Tris-buffered saline Tween-20 (1×TBST) for 30 minutes at room temperature. Membranes were then incubated overnight at 4° C. with one of the following antibodies: rabbit anti-GLT-1 (1:1000, Abcam, AB41621), and/or rabbit anti-xCT (1:1000, Abcam, AB175186). Mouse anti-β-tubulin (1:1000; Cell Signaling D71G5) was used as a loading control antibody. On the following day, membranes were washed five times with 1×TBST followed by incubation with appropriate secondary antibody (1:4000) for 60 minutes at room temperature. Chemiluminescent reagents (Super Signal West Pico, Pierce Inc.) were used to detect proteins using a ChemiDoc imaging system (BioRad, USA).
# GLT-1 and xCT expression were normalized against β-tubulin, a control loading protein. Imaging System and ImageJ software version 1.53a were used to quantify and analyze the expression of GLT-1 and xCT in the subregions of the mPFC and NAc. Data from water-control group were represented as 100% and all other values were expressed relative to this control to evaluate the changes in protein expression.
# The ratios for treated animals in the ethanol/saline and ethanol/MC-100093 groups were normalized to the mean ratios for the control group (water/saline group). The control ratio was set at 100, and the results from each of the treated groups were expressed as a percentage relative to the water/saline group value of 100%. We normalized the ethanol/saline and ethanol/MC-100093 groups data to water/saline group to reduce any differences of contrast with Western blots for each set of groups (control/water/saline, ethanol/saline, and ethanol/MC-100093 groups).
# All statistical analyses were conducted using GraphPad Prism (10). Two-way (mixed) ANOVA followed by Bonferroni multiple comparison post-hoc test was performed to analyze daily ethanol intake, average daily water intake and body weight. One-way ANOVA followed by Newman-Keuls post hoc tests were used to analyze Western blot data. All statistical analyses data were reported as a p<0.05 of significance.
# [1] = Ethanol-intake model (section C); format: in vivo, Male P rats
# Protocol: Male P rats were obtained from Indiana University School of Medicine (Indianapolis, IN, USA). P rats were ˜90 days old at the beginning of the drinking paradigms. P rats were used in this study as they fit the necessary criteria of ethanol preference. P rats may consume freely ethanol (15% and 30%, v/v) and achieve a pharmacologically blood alcohol concentration (BACs) of 50-200 mg % as shown in previous studies from Indiana University. Rats were housed in a room kept at 21° C. on a 12/12-hour light/dark cycle and had free access to water and food. All experimental procedures were approved by the Institutional Animal Care and Use Committee (IACUC) at University of Toledo under protocol #400160, in accordance with all guidelines of IACUC of the National Institute of Health, and the Guide for the Care and Use of Laboratory Animals.
# Rats were assigned to three groups prior to the start of the experiments based on their weights, and the average weights of each group were similar between all groups. Male P rats were divided into three groups: a) Control/water group was exposed to water for five weeks and received saline vehicle injection (i.p.) every 24 hours during Week 6 for a total of five days; b) Ethanol/saline group was exposed to free choice of ethanol (15% and 30%, v/v) as well as water for 5 weeks and received saline vehicle (i.p.) every 24 hours during Week 6 for a total of five days; c) Ethanol/MC-100093 group was exposed to free choice of ethanol (15% and 30%, v/v) as well as water for 5 weeks and received MC-100093 (100 mg/kg, i.p.) every 24 hours during Week 6 for 5 days (FIG. 16). […]
# The baseline was calculated by taking the average of the prior 5 weeks of water and ethanol consumption as rat weight. […] As weights of the bottles were recorded, the measurements were converted using g of ethanol intake/kg of body weight/day formula to determine ethanol consumption in g/kg of body weight. […]
# Statistical analyses were performed using GraphPad Prism Version 10. […] Statistical significance was determined by a p-value of or less than 0.05.
# [2] = human liver microsomes in vitro; cited from earlier work
# [3] = female P rats, vs ethanol-saline and water-saline
# [4] = male P rats, vs ethanol-saline and water-saline
smiles,measurement,setting,value
C[C@@H](O)[C@H]1C(=O)N[C@@H]1[C@@H](C)C(=O)N1CCN(C)CC1 [MC-100093],GLT-1 expression in the NAc-core,GLT-1; female P rats,significant upregulation of GLT-1 expression
same,GLT-1 expression in the NAc-shell,GLT-1; female P rats,significant upregulation of GLT-1 expression
same,GLT-1 expression in the mPFC-IL,GLT-1; [3],upregulated GLT-1 expression
same,GLT-1 expression in the mPFC-PL,GLT-1; [3],significant upregulation of GLT-1 expression
same,GLT-1 expression in mPFC and NAc subregions (summary),"GLT-1; female and male P rats, vs ethanol-saline groups, 100 mg/kg",upregulated GLT-1 and xCT expression in mPFC and NAc subregions; also recorded: increasing GLT-1 and xCT expression in the mPFC and NAc subregions
same,GLT-1 expression in the mPFC-IL,GLT-1; male P rats,attenuated ethanol-induced downregulation of GLT-1 expression
same,GLT-1 expression in the NAc-core,GLT-1; [4],significantly increased
same,GLT-1 expression in the NAc-shell,GLT-1; [4],significantly increased
same,GLT-1 expression in the mPFC-PL,"GLT-1; male P rats, vs ethanol-saline and water-saline, 100 mg/kg",significantly upregulated GLT-1 expression; also recorded: significantly increased
same,Water intake,"[1]; male P rats exposed to ethanol, 100 mg/kg i.p., day 5, 100 mg/kg",significant increase in water intake; also recorded: drank significantly more water than the ethanol/saline group
same,Body weight,"[1]; male P rats, 100 mg/kg i.p. 5 days",no significant effect of Treatment by Day interaction on body weight
same,Ethanol intake,"[1]; male P rats, 100 mg/kg i.p. days 1-5 of Week 6, vs saline vehicle, 100 mg/kg",reduced ethanol intake after 5-week drinking regimen; also recorded: significant decrease in ethanol intake; also recorded: reduced ethanol intake in P rats staring 24 hours after the first injection of the drug through the five days regimen; also recorded: robust effect in ethanol intake
same,Stability in liver microsomes,[2],high stability
